Experimental data taken from patent US20250154129A1, “CRYSTALLINE PHARMACEUTICALLY ACCEPTABLE SALT AND POLYMORPHIC FORM OF THE […] CYCLASE INHIBITOR VAROGLUTAMSTAT” (VIVORYON THERAPEUTICS N.V., priority 2023, published 2025).
Blank lines part the entries; values can stand above or below the molecule they belong to.

Experiments:
[1] = tested on: CCL2/CCR2 axis; details: three-week repeated administration, 30 and 100 mg/kg, twice daily; dose-dependent; cited from earlier work
[2] = Solubility in water of salt forms from 1 g scale salt screening in isopropanol; assay type: physicochemical; details: 20° C.
From the text: (§1) For such salts with a clear stoichiometry, their preparation was then repeated on 1 g scale (free base) in isopropanol with the acid slowly being added followed by seeding (seeds as obtained from the screening experiment). The solids were then further characterized with regard to: • Handling of crystals, • Crystal habit (microscopy, macroscopic): presence and shape of crystals, • Crystallinity (quality of crystals, XRPD), • Thermal analysis (DSC and TGA), • Hygroscopicity (DVS), and • Solubility in water.

[3] = Solubility screen of the hydrochloride salt in single solvents (HPLC of mother liquor); assay type: physicochemical; details: 20° C.
Description: As a first step, a solubility screen of the hydrochloride salt (obtained from the 1 g scale experiments in Example 3.2) was performed in single solvents as listed in Table 5. This was done in order to identify the most suitable solvents for the process development.
The resulting suspensions were equilibrated for at least 4 hours and the mother liquors sampled for solubility determination by HPLC (see “Description of analytical procedures used in the Examples of the invention” for method details).
• Column: ZORBAX BONUS RP 150 mm×4.6 mm; 3.5 um • Eluent A: 0.05% HCOOH in H2O • Eluent B: 0.05% HCOOH in ACN • Flow 1.00 ml/min • Gradient: 2 min 100% Eluent A, linear increase of Eluent B from 2 to 20 min from 0 to 100% • Detection: UV at 225 nm

[4] = pKa of Varoglutamstat (weak base); assay type: physicochemical
[5] = Solubility screening of the Varoglutamstat free base (HPLC of mother liquor); assay type: physicochemical
Description: 75 mg of solid were transferred into a glass vial, a magnetic stir bar and 1.5 ml of solvent were added. […] The vials were then cooled to 20° C. and stirred for another 30 min. When completely dissolved, additional solid material was added, and the vial equilibrated for at least 3 hours at 20° C.
The mother liquor was sampled and analyzed for content via HPLC versus an external standard solution (1-point calibration).
• Column: PHENOMENEX LUNA C18, 50×4.6 mm, 3 μm, • Mobile phase A: 0.05% TFA in water, • Mobile phase B: 0.05% TFA in acetonitrile. • Gradient: 10% to 90% B in 10 min, 2 min hold, re-equilibrate to initial gradient composition. • Flow: 1.0 mL/min. • Detection: UV at 225 nm.

[6] = tested on: mice doubly transgenic for human APP and human glutaminyl cyclase; details: chronic oral dosing; cited from earlier work
[7] = Hygroscopicity (DVS) of salt forms from Example 3.2; assay type: physicochemical; details: 1 g scale, isopropanol
From the text: as §1
VTI-SA by TA Instruments with Isotherm Software for data acquisition and handling, glass sample holder and de-ionised water for vapour production.

[8] = Crystallinity by XRPD of salt forms from Example 3.2; assay type: physicochemical; details: 1 g scale, isopropanol
From the text: as §1
• Angle: 2θ=2° to 2θ=40° • Sampling width 0.02 • Measurement time: 75 minutes.
Solid was positioned on sample holder, prepared with grease and flattened with a disc of glass.

[9] = tested on: Aβ soluble protofibrils; details: adult patients with early Alzheimer disease; cited from earlier work
[10] = DMSO, solution obtained: solubility identical or higher than 50 mg/mL
[11] = MeOH, solution obtained: solubility identical or higher than 50 mg/mL
[12] = Water, solution obtained: solubility identical or higher than 50 mg/mL

Molecule: CCCOc1ccc(C2C(=O)NC(=O)N2c2ccc3[nH]cnc3c2)cc1 (stereo not drawn) [PQ529]
serum and urine CCL2 [1]: significantly reduced | urinary protein excretion [1]: significantly reduced

Solubility in water ([2]; procedure of Example 4.1): 3600 µM
Molecule: CCCOc1ccc([C@H]2CNC(=O)N2c2ccc3[nH]cnc3c2)cc1 [TosOH]

ML free base ([3]; ACN): 0.1 mg/mL | calculated HCl ([3]; ACN): 0.1 mg/mL | ML free base ([3]; Acetone): 0.1 mg/mL | calculated HCl ([3]; Acetone): 0.1 mg/mL | ML free base [3, 10]: 51.7 mg/mL | calculated HCl [3, 10]: 57.3 mg/mL | ML free base ([3]; EtOAc): 0.0 mg/mL | calculated HCl ([3]; EtOAc): 0.0 mg/mL | ML free base ([3]; EtOH): 41.3 mg/mL | calculated HCl ([3]; EtOH): 45.8 mg/mL | ML free base ([3]; Heptane): 0.0 mg/mL | calculated HCl ([3]; Heptane): 0.0 mg/mL | ML free base ([3]; IPA): 3.6 mg/mL | calculated HCl ([3]; IPA): 4.0 mg/mL | ML free base ([3]; IPrOAc): 0.0 mg/mL | calculated HCl ([3]; IPrOAc): 0.0 mg/mL | ML free base ([3]; MEK): 0.0 mg/mL | calculated HCl ([3]; MEK): 0.0 mg/mL | ML free base ([3]; MIBK): 0.1 mg/mL | calculated HCl ([3]; MIBK): 0.1 mg/mL | ML free base ([3]; Me-THF): 0.0 mg/mL | calculated HCl ([3]; Me-THF): 0.0 mg/mL | ML free base [3, 11]: 47.5 mg/mL | calculated HCl [3, 11]: 52.6 mg/mL | ML free base ([3]; TBME): 0.0 mg/mL | calculated HCl ([3]; TBME): 0.0 mg/mL | ML free base ([3]; THF): 0.0 mg/mL | calculated HCl ([3]; THF): 0.0 mg/mL | ML free base ([3]; Toluene): 0.1 mg/mL | calculated HCl ([3]; Toluene): 0.1 mg/mL | ML free base [3, 12]: 52.0 mg/mL | calculated HCl [3, 12]: 57.6 mg/mL | ML free base ([3]; nBuOH): 3.9 mg/mL | calculated HCl ([3]; nBuOH): 4.4 mg/mL | ML free base ([3]; nPrOH): 10.4 mg/mL | calculated HCl ([3]; nPrOH): 11.5 mg/mL
Molecule: CCCOc1ccc([C@H]2CNC(=O)N2c2ccc3[nH]cnc3c2)cc1.Cl [Varoglutamstat Hydrochloride, (S)-1-(1H-benzo[d]imidazol-5-yl)-5-(4-propoxyphenyl) imidazolidin-2-one hydrochloride]

pKa [4]: 4.55 | solubility in organic solvents ([5]; methyl-isobutyl-ketone, dichloro-methane, 20° C.): good | solubility ([5]; organic solvent or mixture, thermodynamic from solid, acetone, tetrahydrofuran, methyl-tetrahydrofuran, methyl-ethylketone, 2-pentanone, acetonitrile, dimethylsulfoxide, methanol, ethanol, isopropanol, n-propanol, n-butanol, 20° C., read-out: excellent solubility in organic solvents): ≥ 30 mg/mL | solubility in organic solvents ([5]; tert-butyl-methyl-ketone, ethyl-acetate, isopropyl-acetate, heptane, toluene, 20° C.): poorly soluble or insoluble | solubility at 30 min ([5]; thermodynamic from solid, water, equilibrated at 20° C.): < 1 mg/mL | Solubility in water ([5]; water, forms a sticky/oily suspension): almost insoluble | Solubility in water ([2]; procedure of Example 4.1, listed as free base): 890 µM
Molecule: CCCOc1ccc([C@H]2CNC(=O)N2c2ccc3[nH]cnc3c2)cc1 [Varoglutamstat free base, (S)-1-(1H-benzo[d]imidazol-5-yl)-5-(4-propoxyphenyl)imidazolidin-2-one]
brain pyroglutamate Aβ [6]: reduce | recall in the Morris water maze test of spatial memory [6]: improve

hygroscopicity [7]: high | crystallinity (by XRPD) [8]: mediocre
Molecule: Fumarate

hygroscopicity [7]: high | crystallinity (by XRPD) [8]: low
Molecule: Oxalate

B1: Leqembi: humanized IgG1 monoclonal antibody which binds to Aβ soluble protofibrils with high affinity (antibody, chains of the INN, looked up, V domains shown)
VH: EVQLVESGGGLVQPGGSLRLSCSASGFTFSSFGMHWVRQAPGKGLEWVAYISSGSSTIYYGDTVKGRFTISRDNAKNSLFLQMSSLRAEDTAVYYCAREGGYYYGRSYYTMDYWGQGTTVTVSS
VL: DVVMTQSPLSLPVTPGAPASISCRSSQSIVHSNGNTYLEWYLQKPGQSPKLLIYKVSNRFSGVPDRFSGSGSGTDFTLRISRVEAEDVGIYYCFQGSHVPPTFGPGTKLEIK
brain amyloid [9]: reduce | cognitive decline [9]: modestly slow
